Patent US20240199612A1, “IMIDAZOPYRIDINYL INHIBITORS OF PLASMA KALLIKREIN” (SHIRE HUMAN GENETIC THERAPIES, INC., priority 2021, published 2024)

target: human activated kallikrein enzyme (Homo sapiens, UniProt P03952); assay: Inhibition of human activated plasma kallikrein, fluorogenic peptide substrate (PFR-AMC) assay, 500 pM enzyme format; assay type: biochemical; conditions: format with 500 pM activated kallikrein, 300 uM PFR-AMC, 30 min preincubation, 10 min reaction, room temperature; read-out: Primary Dose Response Assay: Average EC50
Procedure: Inhibitory Activity of Exemplary Compounds against Plasma Kallikrein.
Compounds were evaluated for inhibition of the human activated kallikrein enzyme in two formats of an assay employing a fluorogenic peptide substrate. In one assay format, the concentrations of reagents were as follows: 20 mM Tris pH 7.5, 1 mM EDTA, 150 mM sodium chloride, 0.1% PEG-400, 0.1% Triton X-100, 500 pM activated kallikrein enzyme, 300 uM Pro-Phe-Arg-7-amido-4-methylcoumarin (PFR-AMC) substrate. Prior to reaction initiation with substrate, enzyme and inhibitors were preincubated for 30 min at room temperature. After initiation with substrate, reactions were incubated for 10 min at room temperature and fluorescence emission at 460 nm from 380 nm excitation measured with a microplate reader. In another assay format, the concentrations of reagents were as follows: 20 mM Tris pH 7.5, 1 mM EDTA, 150 mM sodium chloride, 0.1% PEG-400, 0.1% Triton X-100, 5 pM activated kallikrein enzyme, 300 uM PFR-AMC substrate. Prior to reaction initiation with substrate, enzyme and inhibitors were preincubated for 30 min at room temperature. After initiation with substrate, reactions were incubated for 18 hr at room temperature and fluorescence emission at 460 nm from 380 nm excitation measured with a microplate reader.

Chain of human activated kallikrein enzyme (P03952 391-638 limits assumed): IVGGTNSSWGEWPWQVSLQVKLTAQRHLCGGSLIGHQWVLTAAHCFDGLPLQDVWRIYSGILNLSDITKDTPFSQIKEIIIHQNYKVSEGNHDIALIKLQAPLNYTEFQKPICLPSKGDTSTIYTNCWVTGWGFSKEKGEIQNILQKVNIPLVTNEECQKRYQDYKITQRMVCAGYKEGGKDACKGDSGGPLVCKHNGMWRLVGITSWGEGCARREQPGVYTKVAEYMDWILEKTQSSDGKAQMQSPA
Chain of human activated kallikrein enzyme (P03952 20-390 partner limits assumed): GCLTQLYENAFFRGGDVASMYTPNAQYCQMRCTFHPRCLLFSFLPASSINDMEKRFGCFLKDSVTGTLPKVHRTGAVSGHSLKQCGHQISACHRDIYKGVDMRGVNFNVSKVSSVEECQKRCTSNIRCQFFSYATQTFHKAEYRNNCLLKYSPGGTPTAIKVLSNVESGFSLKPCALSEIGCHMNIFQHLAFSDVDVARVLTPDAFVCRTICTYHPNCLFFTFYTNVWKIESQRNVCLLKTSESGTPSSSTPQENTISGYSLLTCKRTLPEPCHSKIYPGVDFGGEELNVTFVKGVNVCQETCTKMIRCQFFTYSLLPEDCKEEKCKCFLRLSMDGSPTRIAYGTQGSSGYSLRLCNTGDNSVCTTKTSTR

Row | SMILES | EC50 [nM]
1 | O=C(Nc1cc2c(cn1)ncn2Cc1cn2cc(C3CC3)ccc2n1)OCc1cc(Cl)ccc1-n1cnnn1 [Compound I-23, 5-chloro-2-(1H-tetrazol-1-yl)benzyl (1-((6-cyclopropylimidazo[1,2-a]pyridin-2-yl)methyl)-1H-imidazo[4,5-c]pyridin-6-yl)carbamate] | < 5
2 | Cc1ccnc(COC(=O)Nc2cc(NCc3cn4cc(C5CC5)ccc4n3)ncn2)n1 [Compound I-34, (4-methylpyrimidin-2-yl)methyl (6-(((6-cyclopropylimidazo[1,2-a]pyridin-2-yl)methyl)amino)pyrimidin-4-yl)carbamate] | 5 to 50
3 | O=C(Nc1cc(NCc2cn3cc(C4CC4)ccc3n2)ncn1)OCc1cccc(Cl)c1 [Compound I-1, 3-Chlorobenzyl (6-(((6-cyclopropylimidazo[1,2-a]pyridin-2-yl)methyl)amino)pyrimidin-4-yl)carbamate] | 5 to 50
4 | O=C(Nc1cc(NCc2cn3cc(C4CC4)ccc3n2)ncn1)OCC(O)c1cccc(Cl)c1 (centres unmarked) [Compound I-9, 2-(3-chlorophenyl)-2-hydroxyethyl (6-(((6-cyclopropylimidazo[1,2-a]pyridin-2-yl)methyl)amino)pyrimidin-4-yl)carbamate] | 5 to 50
5 | O=C(Nc1cc2c(cn1)ncn2Cc1cn2cc(C3CC3)ccc2n1)OCc1cccc(Cl)c1 [Compound I-16, 3-chlorobenzyl (1-((6-cyclopropylimidazo[1,2-a]pyridin-2-yl)methyl)-1H-imidazo[4,5-c]pyridin-6-yl)carbamate] | 50 to 500
6 | C[C@H](OC(=O)Nc1cc(NCc2cn3cc(C4CC4)ccc3n2)ncn1)c1cccc(Cl)c1 [Compound I-3, (S)-1-(3-chlorophenyl)ethyl (6-(((6-cyclopropylimidazo[1,2-a]pyridin-2-yl)methyl)amino)pyrimidin-4-yl)carbamate] | 500 to 9000
7 | O=C(Nc1nccc2nn(Cc3cn4cc(C5CC5)ccc4n3)cc12)OCc1cccc(Cl)c1 [Compound I-19] | 5 to 50
8 | COc1cccc(COC(=O)Nc2cc(NCc3cn4cc(C5CC5)ccc4n3)ncn2)c1 [Compound I-4, 3-methoxybenzyl (6-(((6-cyclopropylimidazo[1,2-a]pyridin-2-yl)methyl)amino)pyrimidin-4-yl)carbamate] | 50 to 500
9 | O=C(Nc1cc(NCc2cn3cc(C4CC4)ccc3n2)ncn1)NC1Cc2ccc(Cl)cc21 (centres unmarked) [Compound I-32, 1-(4-chlorobicyclo[4.2.0]octa-1(6),2,4-trien-7-yl)-3-(6-(((6-cyclopropylimidazo[1,2-a]pyridin-2-yl)methyl)amino)pyrimidin-4-yl)urea] | 500 to 9000
10 | COc1ccnc(CNC(=O)Nc2cc(NCc3cn4cc(C5CC5)ccc4n3)ncn2)n1 [Compound I-30, 1-(6-(((6-cyclopropylimidazo[1,2-a]pyridin-2-yl)methyl)amino)pyrimidin-4-yl)-3-((4-methoxypyrimidin-2-yl)methyl)urea] | 500 to 9000

More lines, now with the values ahead:

Row | EC50 [nM] | SMILES
11 | 50 to 500 | O=C(NCc1cc(Cl)ccn1)Nc1cc(NCc2cn3cc(C4CC4)ccc3n2)ncn1 [Compound I-27, 1-((4-chloropyridin-2-yl)methyl)-3-(6-(((6-cyclopropylimidazo[1,2-a]pyridin-2-yl)methyl)amino)pyrimidin-4-yl)urea]
12 | 50 to 500 | CC(OC(=O)Nc1cc2c(cn1)ncn2Cc1cn2cc(C3CC3)ccc2n1)c1cccc(Cl)c1 (centres unmarked) [Compound I-17, 1-(3-chlorophenyl)ethyl (1-((6-cyclopropylimidazo[1,2-a]pyridin-2-yl)methyl)-1H-imidazo[4,5-c]pyridin-6-yl)carbamate]
13 | < 5 | O=C(Nc1nccc2nn(Cc3cn4cc(C5CC5)ccc4n3)cc12)OCc1cc(Cl)ccc1-n1cnnn1 [Compound I-22, 5-chloro-2-(1H-tetrazol-1-yl)benzyl (2-((6-cyclopropylimidazo[1,2-a]pyridin-2-yl)methyl)-2H-pyrazolo[4,3-c]pyridin-4-yl)carbamate]
14 | > 9000 | O=C(Nc1cc(NCc2cn3cc(C4CC4)ccc3n2)ncn1)N1CC(c2cccc(Cl)c2)C1 [Compound I-25, 3-(3-chlorophenyl)-N-(6-(((6-cyclopropylimidazo[1,2-a]pyridin-2-yl)methyl)amino)pyrimidin-4-yl)azetidine-1-carboxamide]
15 | 50 to 500 | O=C(Nc1cc(N2C[C@@H](O)C[C@@H]2c2cn3cc(C4CC4)ccc3n2)ncn1)N1CC(c2ncccn2)C1 [Compound I-33, N-(6-((2R,4S)-2-(6-cyclopropylimidazo[1,2-a]pyridin-2-yl)-4-hydroxypyrrolidin-1-yl)pyrimidin-4-yl)-3-(pyrimidin-2-yl)azetidine-1-carboxamide]
16 | < 5 | C[C@@H](OC(=O)Nc1cc(NCc2cn3cc(C4CC4)ccc3n2)ncn1)c1cccc(Cl)c1 [Compound I-2, (R)-1-(3-chlorophenyl)ethyl (6-(((6-cyclopropylimidazo[1,2-a]pyridin-2-yl)methyl)amino)pyrimidin-4-yl)carbamate]
17 | 50 to 500 | O=C(Nc1cc2c(cn1)nnn2Cc1cn2cc(C3CC3)ccc2n1)OCc1cccc(Cl)c1 [Compound I-20, 3-chlorobenzyl (1-((6-cyclopropylimidazo[1,2-a]pyridin-2-yl)methyl)-1H-[1,2,3]triazolo[4,5-c]pyridin-6-yl)carbamate]
18 | 50 to 500 | O=C(NCc1nccc(Cl)n1)Nc1cc(NCc2cn3cc(C4CC4)ccc3n2)ncn1 [Compound I-29, 1-((4-chloropyrimidin-2-yl)methyl)-3-(6-(((6-cyclopropylimidazo[1,2-a]pyridin-2-yl)methyl)amino)-pyrimidin-4-yl)urea]
19 | 500 to 9000 | O=C(Nc1cc(N2C[C@@H](O)C[C@@H]2c2cn3cc(C4CC4)ccc3n2)ncn1)N1CC(c2ccccc2)C1 [Compound I-31, N-(6-((2R,4S)-2-(6-cyclopropylimidazo[1,2-a]pyridin-2-yl)-4-hydroxypyrrolidin-1-yl)pyrimidin-4-yl)-3-phenylazetidine-1-carboxamide]
20 | 50 to 500 | O=C(Nc1cn2c(Cc3cn4cc(C5CC5)ccc4n3)nnc2cn1)OCc1cccc(Cl)c1 [Compound I-14, 3-chlorobenzyl (3-((6-cyclopropylimidazo[1,2-a]pyridin-2-yl)methyl)-[1,2,4]triazolo[4,3-a]pyrazin-6-yl)carbamate]
21 | 50 to 500 | CCC(OC(=O)Nc1cc(NCc2cn3cc(C4CC4)ccc3n2)ncn1)c1cccc(Cl)c1 (centres unmarked) [Compound I-6, 1-(3-chlorophenyl)propyl (6-(((6-cyclopropylimidazo[1,2-a]pyridin-2-yl)methyl)amino)pyrimidin-4-yl)carbamate]
22 | 5 to 50 | CC(OC(=O)Nc1cc(NCc2cn3cc(C4CC4)ccc3n2)ncn1)c1cccc(Cl)c1F (centres unmarked) [Compound I-7, 1-(3-chloro-2-fluorophenyl)ethyl (6-(((6-cyclopropylimidazo[1,2-a]pyridin-2-yl)methyl)amino)pyrimidin-4-yl)carbamate]
23 | 500 to 9000 | O=C(NCc1cccc(Cl)c1)Nc1cc(NCc2cn3cc(C4CC4)ccc3n2)ncn1 [Compound I-24, 1-(3-chlorobenzyl)-3-(6-(((6-cyclopropylimidazo[1,2-a]pyridin-2-yl)methyl)amino)pyrimidin-4-yl)urea]
